Assay results taken from patent US20230233569A1 (Revolution Medicines, Inc., priority 2020, published 2023).

Columns and labels:
Capan-1 (K-Ras G12V) = experiment: CellTiter-Glo cell viability assay, 5-day treatment; type: cell-based; conditions: Homo sapiens, CAPAN-1, 120 h, 5-day treatment; read-out: Capan-1 Cell Viability assay data (K-Ras G12V, IC50)
In short: (§1)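 Five-day compound treatment of plated cells; luminescent read after ~30 min at RT. Percent-of-DMSO data fit to a four-parameter logistic model.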

NCI-H358 (K-Ras G12C) = experiment: as above; type: cell-based; conditions: Homo sapiens, NCI-H358, 120 h, 5-day treatment; read-out: H358 Cell Viability assay data (K-Ras G12C, IC50)
In short: as §1

KRAS WT = KRAS WT (Homo sapiens, UniProt P01116+P62937); experiment: Disruption of BRAF RBD interaction with Ras (FRET / MOA assay, with Cyclophilin A); type: biochemical; conditions: KRAS WT; read-out: KRAS WT FRET data IC50
In short: (§2)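 IC50 values reflect loss of K-Ras binding to BRAF RBD, read as a lowered TR-FRET ratio compared with DMSO, driven by compound-mediated K-Ras:Cyclophilin A complex formation. Compound top dose 30 μM final, 3-fold steps, 3 h incubation at 25 °C before a 1.5 h antibody step.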

NRAS G12C = NRAS G12C (Homo sapiens, UniProt P01111+P62937, G12C); experiment: as above; type: biochemical; conditions: NRAS G12C; read-out: NRAS G12C FRET data IC50
KRAS G12D = KRAS G12D (Homo sapiens, UniProt P01116+P62937, G12D); experiment: as above; type: biochemical; conditions: read-out: KRAS G12D FRET data, IC50
In short: as §2

KRAS G12S = KRAS G12S (Homo sapiens, UniProt P01116+P62937, G12S); experiment: as above; type: biochemical; conditions: read-out: KRAS G12S FRET data, IC50
In short: as §2

KRAS G13D = KRAS G13D (Homo sapiens, UniProt P01116+P62937, G13D); experiment: as above; type: biochemical; conditions: KRAS G13D; read-out: KRAS G13D FRET data IC50
In short: as §2

KRAS G13C = KRAS G13C (Homo sapiens, UniProt P01116+P62937, G13C); experiment: as above; type: biochemical; conditions: read-out: KRAS G13C FRET data, IC50
In short: as §2

KRAS G12C = KRAS G12C (Homo sapiens, UniProt P01116+P62937, G12C); experiment: as above; type: biochemical; conditions: read-out: KRAS G12C FRET data, IC50
In short: as §2

KRAS G12V = KRAS G12V (Homo sapiens, UniProt P01116+P62937, G12V); experiment: as above; type: biochemical; conditions: KRAS G12V; read-out: KRAS G12V FRET data IC50
In short: as §2

KRAS Q61H = KRAS Q61H (Homo sapiens, UniProt P01116+P62937, Q61H); experiment: as above; type: biochemical; conditions: KRAS Q61H; read-out: KRAS Q61H FRET data IC50
In short: (§3)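 IC50 reflects compound-driven Ras:Cyclophilin A ternary complex displacing BRAF RBD, read as lowered TR-FRET ratio relative to DMSO after Eu anti-His (10 nM) and APC anti-GST (50 nM) detection for 1.5 h. Prior incubation 3 h, 25° C, with 12.5 nM GMPPNP-loaded Ras, 50 nM BRAF RBD, 25 μM Cyclophilin A; top compound 30 μM.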

NRAS Q61K = NRAS Q61K (Homo sapiens, UniProt P01111+P62937, Q61K); experiment: as above; type: biochemical; conditions: NRAS Q61K; read-out: NRAS Q61K FRET data IC50
In short: as §3

NRAS WT = NRAS WT (Homo sapiens, UniProt P01111+P62937); experiment: as above; type: biochemical; conditions: NRAS WT; read-out: NRAS WT FRET data IC50
In short: as §3

NRAS Q61R = NRAS Q61R (Homo sapiens, UniProt P01111+P62937, Q61R); experiment: as above; type: biochemical; conditions: NRAS Q61R; read-out: NRAS Q61R FRET data IC50
In short: as §3

Chain of KRAS WT (P01116 1-169 isoform P01116-2 limits assumed): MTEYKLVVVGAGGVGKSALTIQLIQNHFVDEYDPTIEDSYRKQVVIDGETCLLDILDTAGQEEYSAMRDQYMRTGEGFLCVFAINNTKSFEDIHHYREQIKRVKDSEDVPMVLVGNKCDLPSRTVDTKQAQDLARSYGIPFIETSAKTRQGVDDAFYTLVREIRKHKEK
Chain of KRAS WT (P62937 whole entry): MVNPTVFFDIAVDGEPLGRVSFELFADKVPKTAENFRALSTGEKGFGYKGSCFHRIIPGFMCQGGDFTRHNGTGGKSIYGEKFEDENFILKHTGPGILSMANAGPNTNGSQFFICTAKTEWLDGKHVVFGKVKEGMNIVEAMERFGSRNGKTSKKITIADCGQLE
Chain of KRAS G12V (P01116 1-169 isoform P01116-2 G12V limits assumed): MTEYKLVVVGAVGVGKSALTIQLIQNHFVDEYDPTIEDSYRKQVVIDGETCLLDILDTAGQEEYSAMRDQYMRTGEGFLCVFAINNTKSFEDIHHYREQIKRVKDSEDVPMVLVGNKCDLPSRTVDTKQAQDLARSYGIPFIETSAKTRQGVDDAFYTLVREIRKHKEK
Chain of KRAS G12V (P62937 whole entry): as the sequence (P62937 whole entry) above
Chain of KRAS G12D (P01116 1-169 isoform P01116-2 G12D limits assumed): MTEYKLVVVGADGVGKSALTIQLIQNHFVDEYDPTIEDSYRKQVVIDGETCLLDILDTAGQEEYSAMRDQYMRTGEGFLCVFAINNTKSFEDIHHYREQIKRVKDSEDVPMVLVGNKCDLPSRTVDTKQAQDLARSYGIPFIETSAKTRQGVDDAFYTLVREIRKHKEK
Chain of KRAS G12D (P62937 whole entry): as the sequence (P62937 whole entry) above
Chain of KRAS G12C (P01116 1-169 isoform P01116-2 G12C): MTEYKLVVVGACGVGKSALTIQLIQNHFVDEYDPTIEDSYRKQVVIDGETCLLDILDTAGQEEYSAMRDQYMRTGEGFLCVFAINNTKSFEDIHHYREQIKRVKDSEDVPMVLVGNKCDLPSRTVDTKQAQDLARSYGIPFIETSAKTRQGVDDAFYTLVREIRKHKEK
Chain of KRAS G12C (P62937 whole entry): as the sequence (P62937 whole entry) above
Chain of NRAS Q61R (P01111 whole entry Q61R): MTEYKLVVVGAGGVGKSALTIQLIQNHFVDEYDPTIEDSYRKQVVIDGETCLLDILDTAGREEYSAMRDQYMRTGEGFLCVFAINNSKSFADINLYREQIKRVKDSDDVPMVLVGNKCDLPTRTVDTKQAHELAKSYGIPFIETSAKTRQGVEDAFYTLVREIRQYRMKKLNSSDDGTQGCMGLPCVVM
Chain of NRAS Q61R (P62937 whole entry): as the sequence (P62937 whole entry) above
Chain of NRAS WT (P01111 whole entry): as the sequence (P01111 whole entry Q61R) above, with R61Q counted along it
Chain of NRAS WT (P62937 whole entry): as the sequence (P62937 whole entry) above
Chain of NRAS G12C (P01111 whole entry G12C): as the sequence (P01111 whole entry Q61R) above, with G12C, R61Q counted along it
Chain of NRAS G12C (P62937 whole entry): as the sequence (P62937 whole entry) above
Chain of KRAS G13C (P01116 1-169 isoform P01116-2 G13C): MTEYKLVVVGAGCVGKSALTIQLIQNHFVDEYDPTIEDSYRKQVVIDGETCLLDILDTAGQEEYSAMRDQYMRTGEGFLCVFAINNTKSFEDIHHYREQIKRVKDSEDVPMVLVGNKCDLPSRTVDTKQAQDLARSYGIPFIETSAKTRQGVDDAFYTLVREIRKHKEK
Chain of KRAS G13C (P62937 whole entry): as the sequence (P62937 whole entry) above
Chain of KRAS G12S (P01116 1-169 isoform P01116-2 G12S limits assumed): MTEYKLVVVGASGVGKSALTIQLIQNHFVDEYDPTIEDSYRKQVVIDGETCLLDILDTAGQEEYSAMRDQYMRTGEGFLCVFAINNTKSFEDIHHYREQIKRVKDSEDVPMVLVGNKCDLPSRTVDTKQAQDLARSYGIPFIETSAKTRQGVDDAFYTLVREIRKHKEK
Chain of KRAS G12S (P62937 whole entry): as the sequence (P62937 whole entry) above
Chain of KRAS Q61H (P01116 1-169 isoform P01116-2 Q61H limits assumed): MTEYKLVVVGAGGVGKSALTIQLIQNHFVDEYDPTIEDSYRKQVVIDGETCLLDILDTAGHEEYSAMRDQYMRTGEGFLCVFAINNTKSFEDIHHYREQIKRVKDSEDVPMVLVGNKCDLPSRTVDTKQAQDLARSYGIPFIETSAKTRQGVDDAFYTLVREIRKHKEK
Chain of KRAS Q61H (P62937 whole entry): as the sequence (P62937 whole entry) above
Chain of NRAS Q61K (P01111 whole entry Q61K): as the sequence (P01111 whole entry Q61R) above, with R61K counted along it
Chain of NRAS Q61K (P62937 whole entry): as the sequence (P62937 whole entry) above
Chain of KRAS G13D (P01116 1-169 isoform P01116-2 G13D limits assumed): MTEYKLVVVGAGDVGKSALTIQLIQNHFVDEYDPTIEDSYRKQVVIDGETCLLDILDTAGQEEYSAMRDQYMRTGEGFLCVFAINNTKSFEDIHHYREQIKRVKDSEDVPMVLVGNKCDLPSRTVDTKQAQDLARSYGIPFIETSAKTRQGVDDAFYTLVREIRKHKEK
Chain of KRAS G13D (P62937 whole entry): as the sequence (P62937 whole entry) above

SMILES | IC50 (Capan-1 (K-Ras G12V)) [nM] | IC50 (NCI-H358 (K-Ras G12C)) [nM] | IC50 (KRAS WT) [nM] | IC50 (NRAS G12C) [nM] | IC50 (KRAS G12D) [nM] | IC50 (KRAS G12S) [nM] | IC50 (KRAS G13D) [nM] | IC50 (KRAS G13C) [nM] | IC50 (KRAS G12C) [nM] | IC50 (KRAS G12V) [nM] | IC50 (KRAS Q61H) [nM] | IC50 (NRAS Q61K) [nM] | IC50 (NRAS WT) [nM] | IC50 (NRAS Q61R) [nM]
CCn1c(-c2cccnc2[C@H](C)OC)c2c3cc(ccc31)-c1csc(n1)C[C@H](NC(=O)[C@H](C(C)C)N(C)C(=O)N1CCCOCC1)C(=O)N1CCC[C@H](N1)C(=O)OCC(C)(C)C2 (atropisomer, axis not shown) [Example A335] | 10 to 100 | < 10 | 10 to 100 | 10 to 100 | 100 to 1000 | 10 to 100 | 100 to 1000 | 100 to 1000 | 10 to 100 | 100 to 1000 | 10 to 100 | 10 to 100 | 10 to 100 | 10 to 100
CCn1c(-c2cccnc2[C@H](C)OC)c2c3cc(ccc31)-c1csc(n1)C[C@H](NC(=O)[C@H](C(C)C)N(C)C(=O)N1CC(NC)C1)C(=O)N1CCC[C@H](N1)C(=O)OCC(C)(C)C2 (atropisomer, axis not shown) [Example A337] | 100 to 1000 | 10 to 100 | 100 to 1000 | 100 to 1000 | 1000 to 10000 | 100 to 1000 | 100 to 1000 | 100 to 1000 | 100 to 1000 | 100 to 1000 | 100 to 1000 | 10 to 100 | 100 to 1000 | 100 to 1000
CCn1c(-c2cccnc2[C@H](C)OC)c2c3cc(ccc31)-c1csc(n1)C[C@H](NC(=O)[C@H](C(C)C)N(C)C(=O)N(C)C1CCC1)C(=O)N1CCC[C@H](N1)C(=O)OCC(C)(C)C2 (atropisomer, axis not shown) [Example A349] | 100 to 1000 | 10 to 100 | 10 to 100 | 10 to 100 | 100 to 1000 | 10 to 100 | 10 to 100 | 10 to 100 | 10 to 100 | 10 to 100 | 10 to 100 | 10 to 100 | 10 to 100 | 10 to 100
CCn1c(-c2cccnc2[C@H](C)OC)c2c3cc(ccc31)-c1csc(n1)C[C@H](NC(=O)[C@H](C(C)C)N(C)C(=O)N1CC(CO)C1)C(=O)N1CCC[C@H](N1)C(=O)OCC(C)(C)C2 (atropisomer, axis not shown) [Example A356] | 10 to 100 | < 10 | 100 to 1000 | 10 to 100 | 100 to 1000 | 100 to 1000 | 100 to 1000 | 100 to 1000 | 10 to 100 | 100 to 1000 | 10 to 100 | 10 to 100 | 10 to 100 | 10 to 100
CCn1c(-c2cccnc2[C@H](C)OC)c2c3cc(ccc31)-c1csc(n1)C[C@H](NC(=O)[C@H](C(C)C)N(C)C(=O)N1CCOCC1)C(=O)N1CCC[C@H](N1)C(=O)OCC(C)(C)C2 (atropisomer, axis not shown) [Example A372] | 10 to 100 | < 10 | 10 to 100 | 10 to 100 | 100 to 1000 | 100 to 1000 | 100 to 1000 | 100 to 1000 | 10 to 100 | 100 to 1000 | 10 to 100 | 10 to 100 | 10 to 100 | 10 to 100
CCn1c(-c2cccnc2[C@H](C)OC)c2c3cc(ccc31)-c1csc(n1)C[C@H](NC(=O)[C@H](C(C)C)N(C)C(=O)N1CC[C@@H](O)C1)C(=O)N1CCC[C@H](N1)C(=O)OCC(C)(C)C2 (atropisomer, axis not shown) [Example A376] | 10 to 100 | 10 to 100 | 100 to 1000 | 10 to 100 | 100 to 1000 | 100 to 1000 | 100 to 1000 | 100 to 1000 | 10 to 100 | 100 to 1000 | 10 to 100 | 10 to 100 | 100 to 1000 | 100 to 1000
CCn1c(-c2cccnc2[C@H](C)OC)c2c3cc(ccc31)-c1csc(n1)C[C@H](NC(=O)[C@H](C(C)C)N(C)C(=O)N1CC(C#N)C1)C(=O)N1CCC[C@H](N1)C(=O)OCC(C)(C)C2 (atropisomer, axis not shown) [Example A382] | 10 to 100 | < 10 | 100 to 1000 | 10 to 100 | 100 to 1000 | 100 to 1000 | 100 to 1000 | 100 to 1000 | 10 to 100 | 100 to 1000 | 10 to 100 | 10 to 100 | 100 to 1000 | 100 to 1000
CCn1c(-c2cccnc2[C@H](C)OC)c2c3cc(ccc31)-c1csc(n1)C[C@H](NC(=O)[C@H](C(C)C)N(C)C(=O)N1CCCC1)C(=O)N1CCC[C@H](N1)C(=O)OCC(C)(C)C2 (atropisomer, axis not shown) [Example A400] | 10 to 100 | 10 to 100 | 10 to 100 | 10 to 100 | 100 to 1000 | 10 to 100 | 100 to 1000 | 100 to 1000 | 10 to 100 | 100 to 1000 | 10 to 100 | 10 to 100 | 10 to 100 | 10 to 100
CCn1c(-c2cccnc2[C@H](C)OC)c2c3cc(ccc31)-c1csc(n1)C[C@H](NC(=O)[C@H](C(C)C)N(C)C(=O)N1CCN(C(=O)C3(N(C)C)CC3)CC1)C(=O)N1CCC[C@H](N1)C(=O)OCC(C)(C)C2 (atropisomer, axis not shown) [Example A443] | 10 to 100 | < 10 | 10 to 100 | 10 to 100 | 100 to 1000 | 100 to 1000 | 100 to 1000 | 100 to 1000 | 10 to 100 | 100 to 1000 | 10 to 100 | 10 to 100 | 10 to 100 | 100 to 1000
CCn1c(-c2cccnc2[C@H](C)OC)c2c3cc(ccc31)-c1csc(n1)C[C@H](NC(=O)[C@H](C(C)C)N(C)C(=O)N1C[C@H]3OCCN(C)[C@H]3C1)C(=O)N1CCC[C@H](N1)C(=O)OCC(C)(C)C2 (atropisomer, axis not shown) [Example A451] | 10 to 100 | 10 to 100 | 100 to 1000 | 100 to 1000 | 1000 to 10000 | 100 to 1000 | 1000 to 10000 | 100 to 1000 | 100 to 1000 | 100 to 1000 | 100 to 1000 | 10 to 100 | 100 to 1000 | 100 to 1000
CCn1c(-c2cccnc2[C@H](C)OC)c2c3cc(ccc31)-c1csc(n1)C[C@H](NC(=O)[C@H](C(C)C)N(C)C(=O)N1CC([C@@H](C)N(C)C)C1)C(=O)N1CCC[C@H](N1)C(=O)OCC(C)(C)C2 (atropisomer, axis not shown) [Example A458] | 10 to 100 | 10 to 100 | 100 to 1000 | 10 to 100 | 100 to 1000 | 100 to 1000 | 100 to 1000 | 100 to 1000 | 10 to 100 | 100 to 1000 | 100 to 1000 | 10 to 100 | 100 to 1000 | 100 to 1000
